Results as given in patent publication US20260226031A1, “NOVEL COMPOUNDS” (NRG THERAPEUTICS LTD., priority 2023, published 2026).

Key:
mPTP [1] = assay: mPTP activity (Ca2+ retention) assay in isolated rat liver mitochondria; format: biochemical; details: isolated rat liver mitochondria; Fluo5N fluorescence at 10 min after CaCl2 (75 μM) bolus; DMSO 0%, 5 μM cyclosporin A 100% inhibition
Procedure, shortened: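 Freshly isolated female Sprague Dawley rat liver mitochondria with succinate, rotenone and Fluo5N were preincubated 10 min at RT with compounds (final 30 μM to 1 nM), then challenged with CaCl2. Fluorescence at 10 min gave % inhibition versus DMSO (0%) and 5 μM cyclosporin A (100%); pIC50 calculated.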

mPTP [2] = assay: mPTP activity (Ca2+ retention) assay in isolated rat brain mitochondria; format: biochemical; details: isolated rat brain mitochondria; Fluo5N fluorescence at 10 min after Ca2+ (75 μM) bolus
Procedure, shortened: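 Mitochondria freshly isolated from brains of perfused female Sprague Dawley rats, digitonin-treated, in pH 7.4 mannitol/MOPS/KCl buffer with pyruvate, malate, ADP and oligomycin A. Incubated with compound 10 min at RT with 2 μM Fluo5N. Fluorescence then read every 3 s for 10 min.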

## O=C(c1nccc(=O)[nH]1)N1CC(c2ccccc2)C2(CCC2)C1 (racemic) [Example 18, rac-2-{8-phenyl-6-azaspiro[3.4]octane-6-carbonyl}-3H-pyrimidin-4-one]
mPTP [1]
  mPTP Rat liver pIC50*: 5.52
mPTP [2]
  mPTP Rat brain pIC50: 6.56

## O=C(c1cncc(O)n1)N1CC(c2ccccc2)C2(CCC2)C1 (stereo not drawn) [Example 2, (6-hydroxypyrazin-2-yl)(8-phenyl-6-azaspiro[3.4]octan-6-yl)methanone]
mPTP [1]
  mPTP Rat liver pIC50*: 5.80
mPTP [2]
  mPTP Rat brain pIC50: 6.90

## O=C(c1cc(O)no1)N1CC(c2ccc(F)cc2F)C2(CCC2)C1 (single isomer, unassigned) [Example 42a, (8-(2,4-difluorophenyl)-6-azaspiro[3.4]octan-6-yl)(3-hydroxyisoxazol-5-yl)methanone]
mPTP [1]
  mPTP Rat liver pIC50*: 6.26
mPTP [2]
  mPTP Rat brain pIC50: 6.99

## O=C(c1cncc(O)n1)N1CC(c2ccccc2)C2(CCC2)C1 (single isomer, unassigned) [Example 6a, (6-hydroxypyrazin-2-yl)(8-phenyl-6-azaspiro[3.4]octan-6-yl)methanone]
mPTP [1]
  mPTP Rat liver pIC50*: 6.39
mPTP [2]
  mPTP Rat brain pIC50: 7.34

## O=C(c1cncc(=O)[nH]1)N1CC(c2ccccc2)C2(CCCC2)C1 (single isomer, unassigned) [Example 17a, 6-[4-Phenyl-2-azaspiro[4.4]nonane-2-carbonyl]-1H-pyrazin-2-one]
mPTP [1]
  mPTP Rat liver pIC50*: 6
mPTP [2]
  mPTP Rat brain pIC50: 6.63

## CCC1CN(C(=O)c2cncc(=O)[nH]2)CC1c1ccccc1 (single isomer, unassigned) [Example 15c, 6-(3-ethyl-4-phenylpyrrolidine-1-carbonyl)pyrazin-2(1H)-one]
mPTP [1]
  mPTP Rat liver pIC50*: 5.24
mPTP [2]
  mPTP Rat brain pIC50: 5.93

## O=C(c1cc(O)no1)N1CC(c2ccccc2)C2(CCC2)C1 (stereo not drawn) [Example 22, (3-hydroxyisoxazol-5-yl)(8-phenyl-6-azaspiro[3.4]octan-6-yl)methanone]
mPTP [1]
  mPTP Rat liver pIC50*: 6.12
mPTP [2]
  mPTP Rat brain pIC50: 6.7

## CC1(C)CN(C(=O)c2cncc(=O)[nH]2)CCC1c1ccccc1 (stereo not drawn) [Example 9, 6-(3,3-dimethyl-4-phenylpiperidine-1-carbonyl)pyrazin-2(1H)-one]
mPTP [1]
  mPTP Rat liver pIC50*: 5.28
mPTP [2]
  mPTP Rat brain pIC50: 6.61

## O=C(c1ccnc(=O)[nH]1)N1CC(c2ccccc2)C2(CCC2)C1 (single isomer, unassigned) [Example 27a, 6-(8-phenyl-6-azaspiro[3.4]octane-6-carbonyl)pyrimidin-2(1H)-one]
mPTP [1]
  mPTP Rat liver pIC50*: 6.11
mPTP [2]
  mPTP Rat brain pIC50: 6.34

## O=C(c1noc(=O)[nH]1)N1CC(c2ccc(F)c(F)c2)C2(CCC2)C1 (single isomer, unassigned) [Example 47b, 3-(8-(3,4-difluorophenyl)-6-azaspiro[3.4]octane-6-carbonyl)-1,2,4-oxadiazol-5(4H)-one]
mPTP [1]
  mPTP Rat liver pIC50*: <4.52
mPTP [2]
  mPTP Rat brain pIC50: <4.52

## COc1ccc(C2CN(C(=O)c3cncc(=O)[nH]3)CC23CCC3)cc1 (single isomer, unassigned) [Example 28b, 6-(8-(4-methoxyphenyl)-6-azaspiro[3.4]octane-6-carbonyl)pyrazin-2(1H)-one]
mPTP [1]
  mPTP Rat liver pIC50*: <4.52
mPTP [2]
  mPTP Rat brain pIC50: <4.52

## O=C(c1cncc(=O)[nH]1)N1CC(c2cccc(F)c2)C2(CCC2)C1 (single isomer, unassigned) [Example 40a, 6-(8-(3-fluorophenyl)-6-azaspiro[3.4]octane-6-carbonyl)pyrazin-2(1H)-one]
mPTP [1]
  mPTP Rat liver pIC50*: 6.55
mPTP [2]
  mPTP Rat brain pIC50: 7.34

## Cn1nc(C(=O)N2CC(c3ccccc3F)C3(CCC3)C2)[nH]c1=O (stereo not drawn) [Example 11, 5-(8-(2-fluorophenyl)-6-azaspiro[3.4]octane-6-carbonyl)-2-methyl-2,4-dihydro-3H-1,2,4-triazol-3-one]
mPTP [1]
  mPTP Rat liver pIC50*: 4.75
mPTP [2]
  mPTP Rat brain pIC50: 6.25

## O=C(c1cncc(=O)[nH]1)N1CC(c2ccc(Cl)cc2)C2(CCC2)C1 (single isomer, unassigned) [Example 16b, 6-[8-(4-Chlorophenyl)-6-azaspiro[3.4]octane-6-carbonyl]-1H-pyrazin-2-one]
mPTP [1]
  mPTP Rat liver pIC50*: <4.52
mPTP [2]
  mPTP Rat brain pIC50: <4.52

## O=C(c1cncc(=O)[nH]1)N1CC(c2cccc(Cl)c2F)C2(CCC2)C1 (single isomer, unassigned) [Example 33a, 6-(8-(3-chloro-2-fluorophenyl)-6-azaspiro[3.4]octane-6-carbonyl)pyrazin-2(1H)-one]
mPTP [1]
  mPTP Rat liver pIC50*: 5.77
mPTP [2]
  mPTP Rat brain pIC50: 7.32

## O=C(c1cncc(=O)[nH]1)N1CC(c2ccc(F)c(F)c2)C2(CCC2)C1 (single isomer, unassigned) [Example 45b, 6-(8-(3,4-difluorophenyl)-6-azaspiro[3.4]octane-6-carbonyl)pyrazin-2(1H)-one]
mPTP [1]
  mPTP Rat liver pIC50*: <4.52
mPTP [2]
  mPTP Rat brain pIC50: 6.78

## Cn1nc(C(=O)N2C[C@@H](c3ccccc3)C3(CCC3)C2)[nH]c1=O (single isomer, unassigned) [Example 5b]
mPTP [1]
  mPTP Rat liver pIC50*: 5.33
mPTP [2]
  mPTP Rat brain pIC50: 6.55

## O=C(c1cccc(=O)[nH]1)N1CC(c2ccccc2)C2(CCC2)C1 (single isomer, unassigned) [Example 26b, 6-(8-phenyl-6-azaspiro[3.4]octane-6-carbonyl)pyridin-2(1H)-one]
mPTP [1]
  mPTP Rat liver pIC50*: <4.52
mPTP [2]
  mPTP Rat brain pIC50: <4.52

## N#Cc1ccc(C2CN(C(=O)c3cncc(=O)[nH]3)CC23CCC3)cc1 (single isomer, unassigned) [Example 20b, 4-[6-(6-oxo-1H-pyrazine-2-carbonyl)-6-azaspiro[3.4]octan-8-yl]benzonitrile]
mPTP [1]
  mPTP Rat liver pIC50*: <4.52
mPTP [2]
  mPTP Rat brain pIC50: <4.52

## O=C(c1noc(=O)[nH]1)N1CC(c2ccc(F)cc2)C2(CCC2)C1 (single isomer, unassigned) [Example 41b, 3-(8-(4-fluorophenyl)-6-azaspiro[3.4]octane-6-carbonyl)-1,2,4-oxadiazol-5(4H)-one]
mPTP [1]
  mPTP Rat liver pIC50*: <4.52
mPTP [2]
  mPTP Rat brain pIC50: <4.52

## O=C(c1noc(=O)[nH]1)N1CC(c2cccc(F)c2F)C2(CCC2)C1 (single isomer, unassigned) [Example 44a, 3-(8-(2,3-difluorophenyl)-6-azaspiro[3.4]octane-6-carbonyl)-1,2,4-oxadiazol-5(4H)-one]
mPTP [1]
  mPTP Rat liver pIC50*: 5.63
mPTP [2]
  mPTP Rat brain pIC50: 7.33

## O=C(c1cncc(=O)[nH]1)N1CC(c2cc(Cl)ccc2F)C2(CCC2)C1 (single isomer, unassigned) [Example 32a]
mPTP [1]
  mPTP Rat liver pIC50*: 5.87
mPTP [2]
  mPTP Rat brain pIC50: 7.19

## O=C(c1nccc(=O)[nH]1)N1CC(c2ccccc2)C2(CC(F)C2)C1 (single isomer, unassigned) [Example 25b, 2-(2-fluoro-8-phenyl-6-azaspiro[3.4]octane-6-carbonyl)pyrimidin-4(3H)-one]
mPTP [1]
  mPTP Rat liver pIC50*: <4.52
mPTP [2]
  mPTP Rat brain pIC50: 5.57

## O=C(c1cncc(=O)[nH]1)N1CC(c2cccc(F)c2)C2(CCC2)C1 (single isomer, unassigned) [Example 40b, 6-(8-(3-fluorophenyl)-6-azaspiro[3.4]octane-6-carbonyl)pyrazin-2(1H)-one]
mPTP [1]
  mPTP Rat liver pIC50*: 4.97
mPTP [2]
  mPTP Rat brain pIC50: <4.52

## O=C(c1cncc(=O)[nH]1)N1CC(c2ccc(F)cc2F)C2(CCC2)C1 (single isomer, unassigned) [Example 37b, 6-(8-(2,4-difluorophenyl)-6-azaspiro[3.4]octane-6-carbonyl)pyrazin-2(1H)-one]
mPTP [1]
  mPTP Rat liver pIC50*: <4.52
mPTP [2]
  mPTP Rat brain pIC50: <4.52

## O=C(c1cc(O)no1)N1CC(c2ccc(F)cc2F)C2(CCC2)C1 (single isomer, unassigned) [Example 42b, (8-(2,4-difluorophenyl)-6-azaspiro[3.4]octan-6-yl)(3-hydroxyisoxazol-5-yl)methanone]
mPTP [1]
  mPTP Rat liver pIC50*: <4.52
mPTP [2]
  mPTP Rat brain pIC50: <4.52

## O=C(c1noc(=O)[nH]1)N1CC(c2ccc(F)c(F)c2)C2(CCC2)C1 (single isomer, unassigned) [Example 47a, 3-(8-(3,4-difluorophenyl)-6-azaspiro[3.4]octane-6-carbonyl)-1,2,4-oxadiazol-5(4H)-one]
mPTP [1]
  mPTP Rat liver pIC50*: 5.75
mPTP [2]
  mPTP Rat brain pIC50: 7
